Series [1] addresses bovine cytosolic carbonic anhydrase II (bCA II) (Bos taurus, UniProt P00921). As to the kind of experiment: In vitro carbonic anhydrase inhibition assay (p-nitrophenyl acetate hydrolysis). The format is biochemical. To be noted: for IC50: mean of three independent experiments ± SEM; for inhibition at 500 µM: at 0.5 mM concentration of tested compounds, mean ± SEM. The protocol:
Carbonic anhydrase inhibition was measured by the reported method after standardization of reaction conditions such as concentration of enzyme and substrate, buffer pH, and duration of reaction. The method is based on spectrophotometric determination p-nitrophenol, the CA catalyzed hydrolysis product of p-nitrophenyl acetate. The reaction mixture consisted of 60 μL of 50 mM Tris-sulfate buffer (pH 7.6, containing 0.1 mM ZnCl2), 10 μL (0.5 mM) test compound in 1% DMSO, and 10 μL (50 U) bovine enzyme per well. […] Substrate, p-nitrophenyl acetate (6 mM stock using <5% acetonitrile in buffer), 20 μL was freshly prepared and added per well to achieve […] concentration per well. Total reaction volume was made to 100 μL.
The CA active site residues involved in direct zinc binding are His94, His96, and His119. In addition the substrate (CO2) association pocket, Thr199 loop, and the histidine proton shuttle mechanism (for regeneration of active site Zn bound hydroxide ion) are essential for CA catalytic activity and are highly conserved in all alpha class CAs. For this reason initial screening against bCA-II was carried out.

Sequence of bovine cytosolic carbonic anhydrase II (bCA II) (P00921 whole entry): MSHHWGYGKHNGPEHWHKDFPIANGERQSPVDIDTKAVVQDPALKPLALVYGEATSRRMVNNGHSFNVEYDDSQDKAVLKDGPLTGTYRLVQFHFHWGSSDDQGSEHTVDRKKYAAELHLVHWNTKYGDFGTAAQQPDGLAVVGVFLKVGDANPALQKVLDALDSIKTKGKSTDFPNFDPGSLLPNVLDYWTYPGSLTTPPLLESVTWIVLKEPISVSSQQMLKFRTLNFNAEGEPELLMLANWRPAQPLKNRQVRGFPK

Compound `Cc1ccnc(NS(=O)(=O)c2ccc(Nc3nc(Cl)nc(Cl)n3)cc2)n1` [1a, 4-[(4,6-Dichloro-1,3,5-triazin-2-yl)amino]-N-(4-methylpyrimidin-2-yl)benzenesulfonamide] registered a melting point of 235 to 237 °C. The IC50 in series [1] amounted to 4.14 ± 0.02 µM. On to `O=S(=O)(Nc1cnc2ccccc2n1)c1ccc(Nc2nc(Cl)nc(Cl)n2)cc1` [2a, 4-[(4,6-Dichloro-1,3,5-triazin-2-yl)amino]-N-(quinoxalin-2-yl)benzenesulfonamide], for which the melting point fell in the range of 268 to 270 °C. This compound also yielded an IC50 in series [1] of 105.3 ± 0.16 µM. Regarding `Nc1ccc(S(=O)(=O)Nc2cnc3ccccc3n2)cc1` [2b, sulfaquinoxaline, reference compound], the inhibition at 500 µM in series [1] was determined as 51.8%. `O=S(=O)(Nc1ncccn1)c1ccc(Nc2nc(Cl)nc(Cl)n2)cc1` [3a, 4-[(4,6-Dichloro-1,3,5-triazin-2-yl)amino]-N-(pyrimidin-2-yl)benzenesulfonamide] came in with a melting point of 221 to 223 °C. Besides, inhibition in series [1] was half-maximal at 24.9 ± 0.03 µM (IC50). In the same order, the values of `Cc1cc(C)nc(NS(=O)(=O)c2ccc(Nc3nc(Cl)nc(Cl)n3)cc2)n1` [4a, 4-[(4,6-Dichloro-1,3,5-triazin-2-yl)amino]-N-(4,6-dimethylpyrimidin-2-yl)benzenesulfonamide] are 327 to 329 °C and 14.9 ± 0.02 µM. In series [1], `Cc1cc(C)nc(NS(=O)(=O)c2ccc(N)cc2)n1` [4b, sulfadimidine, reference compound] yielded an inhibition at 500 µM of 41.7%. In turn, `O=S(=O)(Nc1cncc(Cl)n1)c1ccc(Nc2nc(Cl)nc(Cl)n2)cc1` [5a, N-(6-Chloropyrazin-2-yl)-4-[(4,6-dichloro-1,3,5-triazin-2-yl)amino]benzenesulfonamide] registered a melting point of 236 to 238 °C. This compound also displayed an IC50 in series [1] of 1.49 ± 0.006 µM.

Regarding `Nc1ccc(S(=O)(=O)Nc2cncc(Cl)n2)cc1` [5b, sulfachloropyrazine, reference compound], in series [1], the inhibition at 500 µM was found to be 42.4%.

What is called IC50 is the midpoint of a concentration-inhibition curve. Higher therefore signals weaker potency. The melting point is the temperature of the solid-liquid transition. Broadly, the inhibition is the percentage by which the read-out fell short of the control. A low value points to a weak effect.

The record behind these values is article PMC4241293, “Sulfa Drugs as Inhibitors of Carbonic Anhydrase: New Targets for the Old Drugs” (BioMed Research International, 2014).
